Source: patent publication US20260144815A1, “BLOOD COAGULATION TIME SHORTENING AGENT FOR BLOOD SPECIMEN DEFICIENT IN COAGULATION FACTOR XII” (SEKISUI MEDICAL CO., LTD., priority 2022, published 2026)

Test system: FXII-deficient specimens
Assay: Test 2: APTT coagulation time measurement of FXII-deficient specimens, zinc chloride basic prescription
Assay type: biochemical, human
Conditions: metal salt used instead of zinc chloride in combination with the polymer
From the text: The following specimens were used: • FXII-deficient specimens (specimens derived from FXII-deficient patients, N=3).
The prescription was the same as that in the test 1 except that copper sulfate pentahydrate in the first reagent (R1) was changed to zinc chloride.
In the control, LIPIDURE (R) was not added.
Test reagents 5-1 to 5-3: zinc chloride in R1 of the basic prescription was changed to the metal salt compound shown in Table 5, and LIPIDURE (R)-BL205 was further added. As the control, the test reagent 4-1 was used.
R1 and R2 were prepared by the same procedure as in the test 1, the coagulation time (APTT) was measured, and the variation rate (%) of APTT with the test reagent with respect to the control was determined.

SMILES | coagulation time of FXII-deficient specimens
O.O.O.O.[Cl][Mn][Cl] [manganese (II) chloride tetrahydrate] | further shortened
O.O.O.O.[Cl][In]([Cl])[Cl] [indium (III) chloride tetrahydrate] | further shortened
